Assay results as given in patent EP4553080A1, “NUCLEOSIDE DERIVATIVES AS ANTIVIRAL AGENTS AGAINST CORONAVIRUSES” (Ustav Organicke Chemie a Biochemie AV CR, v.v.i., priority 2023, dated 2025).

Biological target: nsp14 methyltransferase from SARS-CoV-2 (Severe acute respiratory syndrome coronavirus 2, UniProt P0DTD1)
Test: Nsp14 MTase activity inhibition in vitro (EchoMS assay)
Assay type: biochemical
Conditions: recombinant nsp14 protein expressed in E. coli; dose-response curve

| Structure (SMILES) | IC50 |
| --- | --- |
| Cc1cccc(-c2ccccc2)c1CSC[C@H]1O[C@@H](n2ccc3c(N)ncnc32)[C@H](O)[C@@H]1O [Compound 58c, (2R,3R,4S,5S)-2-(4-Amino-7H-pyrrolo[2,3-d]pyrimidin-7-yl)-5-((((3-methyl-[1,1'-biphenyl]-2-yl)methyl)thio)methyl)tetrahydrofuran-3,4-diol] | 500 to 2000 nM |
| Cn1c(-c2ccccc2)nc(-c2ccccc2)c1CSC[C@H]1O[C@@H](n2ccc3c(N)ncnc32)[C@H](O)[C@@H]1O [Compound 120c, (2R,3R,4S,5S)-2-(4-Amino-7H-pyrrolo[2,3-d]pyrimidin-7-yl)-5-((((1-methyl-2,4-diphenyl-1H-imidazol-5-yl)methyl)thio)methyl)tetrahydrofuran-3,4-diol] | 30 to 100 nM |
| Cc1noc(-c2ccccc2)c1CSC[C@H]1O[C@@H](n2cc(C3CCCC3)c3c(N)ncnc32)[C@H](O)[C@@H]1O [Compound 133b, (2R,3R,4S,5S)-2-(4-Amino-5-cyclopentyl-7H-pyrrolo[2,3-d]pyrimidin-7-yl)-5-((((3-methyl-5-phenylisoxazol-4-yl)methyl)thio)methyl)tetrahydrofuran-3,4-diol] | 100 to 500 nM |
| Cn1cnc(-c2ccccc2)c1CSC[C@H]1O[C@@H](n2ccc3c(N)ncnc32)[C@H](O)[C@@H]1O [Compound 49c] | 100 to 500 nM |
| Cc1noc(-c2ccc3c(c2)OCO3)c1CSC[C@H]1O[C@@H](n2cc(-c3ccc(C#N)cc3)c3c(N)ncnc32)[C@H](O)[C@@H]1O [Compound 236b] | 10 to 30 nM |
| Cc1noc(-c2ccccc2)c1CSC[C@H]1O[C@@H](n2cc(C#Cc3ncc[nH]3)c3c(N)ncnc32)[C@H](O)[C@@H]1O [Compound 178b, (2R,3R,4S,5S)-2-(5-((1H-Imidazol-2-yl)ethynyl)-4-amino-7H-pyrrolo[2,3-d]pyrimidin-7-yl)-5-((((3-methyl-5-phenylisoxazol-4-yl)methyl)thio)methyl)tetrahydrofuran-3,4-diol] | 30 to 100 nM |
| Cn1cnc(-c2ccccc2)c1CSC[C@H]1O[C@@H](n2cc(I)c3c(N)ncnc32)[C@H](O)[C@@H]1O [Compound 244, (2R,3R,4S,5S)-2-(4-Amino-5-iodo-7H-pyrrolo[2,3-d]pyrimidin-7-yl)-5-((((1-methyl-4-phenyl-1H-imidazol-5-yl)methyl)thio)methyl)tetrahydrofuran-3,4-diol] | 10 to 30 nM |
| Cc1ccc(-c2onc(C)c2CSC[C@H]2O[C@@H](n3ccc4c(N)ncnc43)[C@H](O)[C@@H]2O)cc1C [Compound 95c, (2R,3R,4S,5S)-2-(4-Amino-7H-pyrrolo[2,3-d]pyrimidin-7-yl)-5-((((5-(3,4-dimethylphenyl)-3-methylisoxazol-4-yl)methyl)thio)methyl)tetrahydrofuran-3,4-diol] | 10 to 30 nM |
| Cc1noc(-c2ccccc2)c1CSC[C@H]1O[C@@H](n2ccc3c(N)nc(Cl)nc32)[C@H](O)[C@@H]1O [Compound 204, (2R,3R,4S,5S)-2-(4-Amino-2-chloro-7H-pyrrolo[2,3-d]pyrimidin-7-yl)-5-((((3-methyl-5-phenylisoxazol-4-yl)methyl)thio)methyl)tetrahydrofuran-3,4-diol] | 10 to 30 nM |
| Cc1noc(-c2ccc(N)cc2)c1CSC[C@H]1O[C@@H](n2cc(C#Cc3cncnc3)c3c(N)ncnc32)[C@H](O)[C@@H]1O [Compound 241c, (2R,3R,4S,5S)-2-(4-Amino-5-(pyrimidin-5-ylethynyl)-7H-pyrrolo[2,3-d]pyrimidin-7-yl)-5-((((5-(4-aminophenyl)-3-methylisoxazol-4-yl)methyl)thio)methyl)tetrahydrofuran-3,4-diol] | 10 to 30 nM |
| Cc1noc(-c2ccccc2)c1CSC[C@H]1O[C@@H](n2cc(C#N)c3c(N)ncnc32)[C@H](O)[C@@H]1O [Compound 138b, 4-Amino-7-((2R,3R,4S,5S)-3,4-dihydroxy-5-((((3-methyl-5-phenylisoxazol-4-yl)methyl)thio)methyl)tetrahydrofuran-2-yl)-7H-pyrrolo[2,3-d]pyrimidine-5-carbonitrile] | 30 to 100 nM |
| Cc1nsc(-c2ccccc2)c1CSC[C@H]1O[C@@H](n2cc(C#Cc3cncnc3)c3c(N)ncnc32)[C@H](O)[C@@H]1O [Compound 238c, (2R,3R,4S,5S)-2-(4-Amino-5-(pyrimidin-5-ylethynyl)-7H-pyrrolo[2,3-d]pyrimidin-7-yl)-5-((((3-methyl-5-phenylisothiazol-4-yl)methyl)thio)methyl)tetrahydrofuran-3,4-diol] | 30 to 100 nM |
| Cc1ncnc(-c2ccccc2)c1CSC[C@H]1O[C@@H](n2cc(C#Cc3cncnc3)c3c(N)ncnc32)[C@H](O)[C@@H]1O [Compound 239c, (2R,3R,4S,5S)-2-(4-Amino-5-(pyrimidin-5-ylethynyl)-7H-pyrrolo[2,3-d]pyrimidin-7-yl)-5-((((4-methyl-6-phenylpyrimidin-5-yl)methyl)thio)methyl)tetrahydrofuran-3,4-diol] | 30 to 100 nM |
| Cc1noc(-c2cscn2)c1CSC[C@H]1O[C@@H](n2ccc3c(N)ncnc32)[C@H](O)[C@@H]1O [Compound 101c, (2R,3R,4S,5S)-2-(4-Amino-7H-pyrrolo[2,3-d]pyrimidin-7-y1)-5-((((3-methyl-5-(thiazol-4-y1)isoxazo1-4-yl)methyl)thio)methyl)tetrahydrofuran-3,4-diol] | 30 to 100 nM |
| Cc1noc(-c2ccccc2)c1CSC[C@H]1O[C@@H](n2nc(-c3ccc(C#N)cc3)c3c(N)ncnc32)[C@H](O)[C@@H]1O [Compound 219b, 4-(4-Amino-1-((2R,3R,4S,5S)-3,4-dihydroxy-5-((((3-methyl-5-phenylisoxazol-4-yl)methyl)thio)methyl)tetrahydrofuran-2-yl)-1H-pyrazolo[3,4-d]pyrimidin-3-yl)benzonitrile] | 30 to 100 nM |
| Cc1noc(-c2ccccc2)c1CSC[C@H]1O[C@@H](n2cc(CC3CCCCC3)c3c(N)ncnc32)[C@H](O)[C@@H]1O [Compound 135b, (2R,3R,4S,5S)-2-(4-Amino-5-(cyclohexylmethyl)-7H-pyrrolo[2,3-d]pyrimidin-7-yl)-5-((((3-methyl-5-phenylisoxazol-4-yl)methyl)thio)methyl)tetrahydrofuran-3,4-diol] | 500 to 2000 nM |
| Cn1cnc(-c2ccccc2)c1CSC[C@H]1O[C@@H](n2cc(-c3ccc(C#N)cc3)c3c(N)ncnc32)[C@H](O)[C@@H]1O [Compound 230b, 4-(4-Amino-7-((2R,3R,4S,5S)-3,4-dihydroxy-5-((((1-methyl-4-phenyl-1H-imidazol-5-yl)methyl)thio)methyl)tetrahydrofuran-2-yl)-7H-pyrrolo[2,3-d]pyrimidin-5-yl)benzonitrile] | 100 to 500 nM |
| C=Cc1cn([C@@H]2O[C@H](CSCc3c(C)noc3-c3ccccc3)[C@@H](O)[C@H]2O)c2ncnc(N)c12 [Compound 139b, (2R,3R,4S,5S)-2-(4-Amino-5-vinyl-7H-pyrrolo[2,3-d]pyrimidin-7-yl)-5-((((3-methyl-5-phenylisoxazol-4-yl)methyl)thio)methyl)tetrahydrofuran-3,4-diol] | 500 to 2000 nM |
| CCc1cn([C@@H]2O[C@H](CSCc3c(C)noc3-c3ccccc3)[C@@H](O)[C@H]2O)c2ncnc(N)c12 [Compound 142, (2R,3R,4S,5S)-2-(4-Amino-5-ethyl-7H-pyrrolo[2,3-d]pyrimidin-7-yl)-5-((((3-methyl-5-phenylisoxazol-4-yl)methyl)thio)methyl)tetrahydrofuran-3,4-diol] | 30 to 100 nM |
| Cn1nnc(-c2ccccc2)c1CSC[C@H]1O[C@@H](n2ccc3c(N)ncnc32)[C@H](O)[C@@H]1O [Compound 55c, (2R,3R,4S,5S)-2-(4-Amino-7H-pyrrolo[2,3-d]pyrimidin-7-yl)-5-((((1-methyl-4-phenyl-1H-1,2,3-triazol-5-yl)methyl)thio)methyl)tetrahydrofuran-3,4-diol] | 30 to 100 nM |
| Cc1scc(-c2ccccc2)c1CSC[C@H]1O[C@@H](n2ccc3c(N)ncnc32)[C@H](O)[C@@H]1O [Compound 52c, (2R,3R,4S,5S)-2-(4-Amino-7H-pyrrolo[2,3-d]pyrimidin-7-yl)-5-((((2-methyl-4-phenylthiophen-3-yl)methyl)thio)methyl)tetrahydrofuran-3,4-diol] | 500 to 2000 nM |
| Cc1noc(-c2ccccc2)c1CSC[C@H]1O[C@@H](n2cc(CCc3cncnc3)c3c(N)ncnc32)[C@H](O)[C@@H]1O [Compound 183, (2R,3R,4S,5S)-2-(4-Amino-5-(2-(pyrimidin-5-yl)ethyl)-7H-pyrrolo[2,3-d]pyrimidin-7-yl)-5-((((3-methyl-5-phenylisoxazol-4-yl)methyl)thio)methyl)tetrahydrofuran-3,4-diol] | 30 to 100 nM |
| COc1ccc(/C=C/c2cn([C@@H]3O[C@H](CSCc4c(C)noc4-c4ccccc4)[C@@H](O)[C@H]3O)c3ncnc(N)c23)cc1 [Compound 182b, (2R,3R,4S,5S)-2-(4-Amino-5-((E)-4-methoxystyryl)-7H-pyrrolo[2,3-d]pyrimidin-7-yl)-5-((((3-methyl-5-phenylisoxazol-4-yl)methyl)thio)methyl)tetrahydrofuran-3,4-diol] | 30 to 100 nM |
| Cc1ccnc(-c2ccccc2)c1CSC[C@H]1O[C@@H](n2ccc3c(N)ncnc32)[C@H](O)[C@@H]1O [Compound 62c, (2R,3R,4S,5S)-2-(4-Amino-7H-pyrrolo[2,3-d]pyrimidin-7-yl)-5-((((4-methyl-2-phenylpyridin-3-yl)methyl)thio)methyl)tetrahydrofuran-3,4-diol] | 500 to 2000 nM |
| Nc1ncnc2c1ccn2[C@@H]1O[C@H](CSCc2[nH]cnc2-c2ccccc2)[C@@H](O)[C@H]1O [Compound 104c, (2R,3R,4S,5S)-2-(4-Amino-7H-pyrrolo[2,3-d]pyrimidin-7-yl)-5-((((4-phenyl-1H-imidazol-5-yl)methyl)thio)methyl)tetrahydrofuran-3,4-diol] | 500 to 2000 nM |
| Cc1noc(-c2ccccc2)c1CSC[C@H]1O[C@@H](n2cc(-c3ccc(OC(F)(F)F)cc3)c3c(N)ncnc32)[C@H](O)[C@@H]1O [Compound 146b, (2R,3R,4S,5S)-2-(4-Amino-5-(4-(trifluoromethoxy)phenyl)-7H-pyrrolo[2,3-d]pyrimidin-7-yl)-5-((((3-methyl-5-phenylisoxazol-4-yl)methyl)thio)methyl)tetrahydrofuran-3,4-diol] | 100 to 500 nM |
| Nc1ncnc2c1ccn2[C@@H]1O[C@H](CSCc2csnc2-c2ccccc2)[C@@H](O)[C@H]1O [Compound 105c, (2R,3R,4S,5S)-2-(4-Amino-7H-pyrrolo[2,3-d]pyrimidin-7-yl)-5-((((3-phenylisothiazol-4-yl)methyl)thio)methyl)tetrahydrofuran-3,4-diol] | 500 to 2000 nM |
